From PMC6604423, “A New Flavanone as a Potent Antioxidant Isolated from Chromolaena odorata L. Leaves” (Evidence-based Complementary and Alternative Medicine : eCAM, 2019)
Read-outs that look alike come from different tables or passages of the source.

Legend:
[1] = in vitro, C. odorata leaves; cited from earlier work
[2] = target: α-glucosidase rat intestine enzyme; assay: α-Glucosidase inhibitory activity assay (rat intestinal acetone powder, maltose substrate); format: biochemical; details: 10 mM maltose, pH 6.9, 37°C, 10 min, mean ± SD, triplicate
Method: First, rat intestinal acetone powder (1 g) was suspended in 30 mL of normal saline. This suspended solution was sonicated for five minutes at 4°C. After centrifugation (12,000 rpm, 30 minutes, 4°C), the resulting supernatant was used for the assay. Briefly, a mixture of 10 μL samples, 30 μL of 0.1 M phosphate buffer (pH 6.9), 20 μL of 10 mM maltose, 80 μL glucose kit, and 20 μL of enzyme supernatant were incubated in 96-well plates at 37°C for 10 minutes. Acarbose was used as a standard. The absorbance was recorded at 490 nm by microplate reader (Biotek ELx800UV). The inhibitory activity was determined from the formula as follows:(2) Inhibition%=Ablank−Asample/Ablank×100 where Ablank = Aenzyme reaction − Ablank of enzyme reaction and Asample = Asample reaction − Ablank of sample reaction.

[3] = ABTS radical cation scavenging assay; details: for ABTS IC50: 4 min, room temperature, 734 nm, mean ± SD, triplicate; for IC50: same result expressed in μM
Method: Free radical scavenging by ABTS radical was based on the method described previously by us. […] Those two solutions were mixed and incubated for 12-16 hours to obtain ABTS radical cation solution which is a dark blue solution. It was added with ± 274 mL of ethanol to give an absorbance of 0.7 ± 0.02 units at 734 nm for making a working solution. 1 mL of working solution was mixed with 10 μL of samples (n-hexane, dichloromethane, ethyl acetate, methanol, and water extracts) at maximum dissolved concentration in DMSO and mixed well. Finally, the mixed sample solution was incubated for four minutes at room temperature; then, the absorbance (As) of the reaction mixture was measured by UV-Vis spectrophotometers at 734 nm. The mixed solution between DMSO and the working solution was used as blank to give the blank absorbance (Ab). Trolox was used as a standard. […] The IC50 value was expressed as a quantity of an extract inhibitory concentration against a half of ABTS radicals.

[4] = DPPH radical scavenging assay; details: 20 min, room temperature, 517 nm; mean ± SD, triplicate
Method: First, DPPH solution (6 × 10^−5 M) was separated by dissolving 2.37 mg of DPPH in 100 mL of methanol to obtain a working solution. […] Finally, the mixed sample solution was incubated for 20 minutes at room temperature. Then, the absorbance (As) of the reaction mixture was measured by UV-Vis spectrophotometer at 517 nm. The mixed solution between methanol and the working solution was used as blank to give the blank absorbance (Ab). Gallic acid was used as a standard. The inhibitory activity was calculated by (1).

α-Glucosidase inhibition IC50 [2] [µg/mL] | ABTS IC50 [3] [µg/mL] | IC50 [3] [µM] | Structure (SMILES) | further results
– | – | – | O=C1O[C@H]([C@@H](O)CO)C(O)=C1O [ascorbic acid] | ABTS IC50 [1]: 1000 µg/mL
7.67 ± 1.86 | – | – | C[C@H]1O[C@H](O[C@H]2[C@H](O)[C@@H](O)[C@@H](O[C@H]3[C@H](O)[C@@H](O)C(O)O[C@@H]3CO)O[C@@H]2CO)[C@H](O)[C@@H](O)[C@@H]1N[C@H]1C=C(CO)[C@@H](O)[C@H](O)[C@H]1O (some centres unmarked) [Acarbose, acarbose] | –
– | 7.84 ± 0.45 | 31.3 | Cc1c(C)c2c(c(C)c1O)CCC(C)(C(=O)O)O2 (centres unmarked) [Trolox, 6-hydroxy-2,5,7,8-tetramethylchromen-2-carboxylate acid] | –
– | – | – | O=C(O)c1cc(O)c(O)c(O)c1 [Gallic acid, gallic acid] | DPPH IC50 [4]: 1.11 ± 0.42 µg/mL
>62.5 | 7.51 ± 1.57 | 23.7 | COc1cc(O)c2c(c1)OC(c1cc(O)ccc1OC)CC2=O (centres unmarked) [Odoratenin (1), 5,3'-dihydroxy-7,6'-dimethoxyflavanone] | –
